Data taken from publication PMC3914206.

What was measured:
[1] = target: T1, panel of 442 kinases (Homo sapiens, UniProt Q9H093); type: binding; details: kinase SNARK; compound concentration 10 µM
T1 construct: purchased KINOMEscan
T1 sequence (Q9H093 1-628): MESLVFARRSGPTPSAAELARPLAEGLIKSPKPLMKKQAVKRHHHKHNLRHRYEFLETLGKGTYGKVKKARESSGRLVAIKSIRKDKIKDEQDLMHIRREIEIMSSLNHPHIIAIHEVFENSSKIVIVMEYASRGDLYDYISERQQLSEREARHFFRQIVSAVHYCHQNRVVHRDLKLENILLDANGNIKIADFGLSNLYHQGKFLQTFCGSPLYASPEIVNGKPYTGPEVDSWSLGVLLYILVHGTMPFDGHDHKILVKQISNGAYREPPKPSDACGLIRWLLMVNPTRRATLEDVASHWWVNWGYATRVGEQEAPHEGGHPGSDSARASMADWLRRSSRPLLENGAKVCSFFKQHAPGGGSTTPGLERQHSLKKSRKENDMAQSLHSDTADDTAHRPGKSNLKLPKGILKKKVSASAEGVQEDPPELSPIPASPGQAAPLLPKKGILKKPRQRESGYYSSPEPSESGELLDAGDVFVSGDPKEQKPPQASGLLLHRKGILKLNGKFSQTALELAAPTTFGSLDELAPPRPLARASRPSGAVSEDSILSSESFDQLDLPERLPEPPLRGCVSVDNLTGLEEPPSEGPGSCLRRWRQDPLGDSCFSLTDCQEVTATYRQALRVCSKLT
From the text: (§1) We assessed the selectivity of members of this scaffold using the KINOMEscan methodology across a near comprehensive panel of 442 kinases [[18,27]].

[2] = target: T2, panel of 442 kinases (Homo sapiens, UniProt P16234); type: binding; details: Compound Concentration 10 µM
T2 construct: purchased KINOMEscan
T2 sequence (P16234 24-1089): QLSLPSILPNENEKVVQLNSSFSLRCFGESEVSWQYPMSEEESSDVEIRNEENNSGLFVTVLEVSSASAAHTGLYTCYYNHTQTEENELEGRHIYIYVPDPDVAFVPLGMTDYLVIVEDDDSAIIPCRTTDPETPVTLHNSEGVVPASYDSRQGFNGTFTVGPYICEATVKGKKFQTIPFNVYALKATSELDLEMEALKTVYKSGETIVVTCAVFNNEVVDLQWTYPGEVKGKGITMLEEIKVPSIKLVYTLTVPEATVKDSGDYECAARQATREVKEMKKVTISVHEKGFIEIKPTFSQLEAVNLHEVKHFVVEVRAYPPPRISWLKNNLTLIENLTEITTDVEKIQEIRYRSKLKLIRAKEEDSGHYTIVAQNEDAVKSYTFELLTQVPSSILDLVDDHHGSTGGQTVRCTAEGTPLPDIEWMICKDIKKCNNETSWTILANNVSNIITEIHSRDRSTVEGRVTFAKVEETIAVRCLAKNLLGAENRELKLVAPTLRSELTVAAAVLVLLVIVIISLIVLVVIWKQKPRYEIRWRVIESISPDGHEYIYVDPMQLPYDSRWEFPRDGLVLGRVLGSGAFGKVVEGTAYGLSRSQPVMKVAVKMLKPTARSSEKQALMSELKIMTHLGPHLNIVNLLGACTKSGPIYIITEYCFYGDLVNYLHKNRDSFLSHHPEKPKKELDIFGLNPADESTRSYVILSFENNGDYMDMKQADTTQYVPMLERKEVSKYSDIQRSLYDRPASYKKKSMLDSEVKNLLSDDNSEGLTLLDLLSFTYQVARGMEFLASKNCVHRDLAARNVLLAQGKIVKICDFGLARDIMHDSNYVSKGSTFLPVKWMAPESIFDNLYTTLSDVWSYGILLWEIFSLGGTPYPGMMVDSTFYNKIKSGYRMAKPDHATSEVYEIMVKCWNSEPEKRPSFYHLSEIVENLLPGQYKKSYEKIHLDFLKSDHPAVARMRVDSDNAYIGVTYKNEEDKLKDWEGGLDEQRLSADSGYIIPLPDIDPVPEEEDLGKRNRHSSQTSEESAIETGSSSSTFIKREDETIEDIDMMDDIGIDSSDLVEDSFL
From the text: as §1

Row | SMILES | % Ctrl, SNARK [1] [% Ctrl] | KINOMEscan: PDGFRA [2]
1 | COc1cc(C(=O)N2CCC(N3CCN(C)CC3)CC2)ccc1Nc1ncc2c(n1)N1CCc3cccc(c31)C(=O)N2C [Compound 24] | 74 | –
2 | CCOc1cc(C(=O)N2CCC(N3CCN(C)CC3)CC2)ccc1Nc1ncc2c(n1)N(C1CCCC1)c1ccccc1C(=O)N2C [Compound 26] | 96 | 100
3 | COc1cc(C(=O)N2CCC(N3CCN(C)CC3)CC2)ccc1Nc1ncc2c(n1)N(C1CCCC1)c1ccccc1C(=O)N2C [Compound 25, 11-cyclopentyl-2-((2-methoxy-4-(4-(4-methylpiperazin-1-yl)piperidine-1-carbonyl)phenyl)amino)-5-methyl-5H-benzo[e]pyrimido[5,4-b][1,4]diazepin-6(11H)-one] | 100 | 100
4 | COc1cc(C(=O)N2CCC(N3CCN(C)CC3)CC2)ccc1Nc1ncc2c(n1)N(C)c1ccccc1C(=O)N2C [15 (LRRK2-IN-1)] | 47 | 100
